In publication PMC3328449, “Inhibition of Diacylglycerol–Sensitive TRPC Channels by Synthetic and Natural Steroids” (PLoS ONE, 2012):
Several values for one entry are separate records, joined by “and”; a condition that tells them apart may be missing. Equal entries are not always repeated.

Assays:
hTRPC6 = target: T1, hTRPC6 (Homo sapiens, UniProt Q9Y210); assay: Whole-cell patch clamp, AlF4- evoked TRPC6 currents; assay type: cell-based
T1 construct: expressed in transfected cells
T1 sequence (Q9Y210 1-931): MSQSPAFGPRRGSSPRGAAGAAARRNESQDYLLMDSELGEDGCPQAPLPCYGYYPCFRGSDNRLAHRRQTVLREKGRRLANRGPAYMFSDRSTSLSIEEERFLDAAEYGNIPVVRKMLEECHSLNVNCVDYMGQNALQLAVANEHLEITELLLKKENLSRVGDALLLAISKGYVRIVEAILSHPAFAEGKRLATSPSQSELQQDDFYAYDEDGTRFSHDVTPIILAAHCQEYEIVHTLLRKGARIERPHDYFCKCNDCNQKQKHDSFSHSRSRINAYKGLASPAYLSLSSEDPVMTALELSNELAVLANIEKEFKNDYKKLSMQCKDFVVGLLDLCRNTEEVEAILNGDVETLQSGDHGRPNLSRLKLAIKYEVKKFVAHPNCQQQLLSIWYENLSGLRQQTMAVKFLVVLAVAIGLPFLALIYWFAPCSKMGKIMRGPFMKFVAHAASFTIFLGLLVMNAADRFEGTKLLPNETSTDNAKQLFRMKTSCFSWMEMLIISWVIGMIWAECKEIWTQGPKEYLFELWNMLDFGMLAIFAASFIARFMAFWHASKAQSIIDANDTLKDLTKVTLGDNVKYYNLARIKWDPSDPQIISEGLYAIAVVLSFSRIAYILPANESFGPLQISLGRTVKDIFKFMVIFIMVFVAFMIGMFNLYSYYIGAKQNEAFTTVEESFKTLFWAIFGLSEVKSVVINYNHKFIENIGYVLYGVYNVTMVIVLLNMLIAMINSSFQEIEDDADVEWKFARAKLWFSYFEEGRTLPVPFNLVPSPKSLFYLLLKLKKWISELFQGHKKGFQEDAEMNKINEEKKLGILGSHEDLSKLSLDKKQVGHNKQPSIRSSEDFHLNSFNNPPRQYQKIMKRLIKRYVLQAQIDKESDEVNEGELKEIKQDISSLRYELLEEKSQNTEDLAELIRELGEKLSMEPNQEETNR
Method: Cells were grown at 37°C in a humidified atmosphere (5% or 7% CO2) under standard cell culture conditions. Stable human embryonic kidney (HEK) cell lines expressing recombinant mTRPC4ß (GenBank accession number AAC05178); mTRPC5 (GenBank accession number NM_009428) or hTRPC6 (GenBank accession number AF080394) under the control of a tetracycline-inducible promoter were generated using the Flp-In T-Rex (FITR) system (Invitrogen, Karlsruhe, Germany). TRPC4/5/6 HEK-FITR cells were maintained in Dulbecco's modified eagle medium (DMEM, with glutaMAX I, 4.5 g/l glucose and […] sodium pyruvate) supplemented with 10% (v/v) fetal bovine serum (Biochrom, Berlin, Germany), 1 mM glutamine, 1 mM MEM sodium pyruvate, 40 µg/ml hygromycin (50 µg/ml for mTRPC5 HEK-FITR cells), and 15 µg/ml blasticidine HCl. Channel expression was induced by supplementing the growth medium for 18–24 h with 1 µg/ml doxycycline.
The whole-cell patch clamp technique was employed to measure ion currents from single cells. […]
Cells grown on poly-L-lysine-coated coverslips were continuously superfused with extracellular solution and substances were applied using an ALA BPS-8 perfusion system (ALA Scientific Instruments, Westbury, USA). […] Cells were held at −70 mV, and current-voltage (I–V) relationships were routinely measured every 2 or 3 s by applying voltage ramps (180 ms) from −100 mV to +80 mV. […]
For statistical analysis, analysis of variance was performed with Origin 6.0 software (Microcal Software Inc., Northampton, USA). […] IC50 were calculated with SigmaPlot (Systat software, San Jose, USA) using the sigmoidal Hill-model: f = 100 (C^n/(IC50 ^n+C^n)); where f is the inhibition, C is the applied drug concentration and n is the Hill coefficient. The half maximal effective concentration (EC50) of norgestimate-induced vasorelaxation was calculated analogously with R = y0+y1C^n/(EC50 ^n+C^n); where R is relaxation, yo and y1 are constants, C is the applied drug concentration and n is the Hill coefficient. Averaged data is expressed as means ± SEM.

[1] = Solubility in perfusate (remark); assay type: physicochemical; settings: aortic ring experiments; higher concentrations could not be tested

SMILES: C#C[C@]1(OC(C)=O)CC[C@H]2[C@@H]3CCC4=CC(=NO)CC[C@@H]4[C@H]3CC[C@@]21CC (mixture of isomers) [norgestimate]
- Inhibition of TRPC6 currents (hTRPC6; 10 µM, whole-cell patch clamp, AlF4- infusion): almost completely inhibited
- Hill slope, TRPC6 current inhibition (hTRPC6; fit to dose-response equation): 1.19
- IC50 (hTRPC6; whole-cell patch clamp, AlF4- infusion, read-out: IC50, TRPC6 current inhibition): 3.06 µM and ~3 µM
- Solubility [1]: limited solubility
